{
  "source": "patent US20240165094A1",
  "about": "“METHODS AND COMPOSITIONS FOR TREATING MELANOMA” (INSTITUT NATIONAL DE LA SANTÉ ET DE LA RECHERCHE MÉDICALE, priority 2021, published 2024)",
  "key": {"[1]": {"system": "YUMM1.7 Braf-mutant melanoma", "experiment": "Syngenic model of murine YUMM1.7 Braf-mutant melanoma: tumor growth, relapse, survival", "format": "in vivo, mouse", "from_the_text": "FIG. 2. Nintedanib enhances MAPK-targeted therapy efficacy, delays tumor relapse, improves mice survival and normalizes the pro-fibrotic stromal reaction. Kaplan-Meier survival curves of mice treated with vehicle, Nintedanib, MAPK-targeted therapy (BRAFi+MEKi) or MAPK-targeted therapy plus Nintedanib. Log rank (Mantel-Cox) statistical test was used for MAPK-targeted therapy vs MAPK targeted therapy/Nintedanib. ****p<0.0001.\nFIG. 4. Nintedanib, but not Pirfenidone, enhances MAPK-targeted therapy efficacy and delays tumor relapse. Mouse YUMM1.7 cells were injected s.c. into syngeneic C57BL/6 mice. When tumor volume reached 100 mm3, mice were administered vehicle, BRAFi+MEKi combination, Nintedanib, Pirfenidone or the triple combinations of BRAFi+MEKi and Nintedanib or BRAFi+MEKi and Pirfenidone. Representative median graphics show tumor growth following treatment (n=3 mice per group). Treatment: Oral gavage 3 times per week. Vemurafenib (BRAFi): 30 mg/kg; Trametinib (MEKi): 0.3 mg/kg; Nintedanib: 50 mg/kg; Pirfenidone: 100 mg/kg. Oral gavage 3 times per week.\nMouse experiments were carried out according to the Institutional Animal Care and the local ethical committee. 4×105 YUMNI1.7 cells were injected in both flanks of C57BL/6 mice. Tumors were measured with caliper and treatments were started when the tumors reached a volume of 0.1 cm3, after randomization of mice into control and test groups. Vemurafenib (30 mg/kg), Trametinib (0.3 mg/kg), and Nintedanib (50 mg/kg) were administered by oral gavage three times per week. Control mice were treated with vehicle only. Animals were sacrificed when the tumors reached a volume of 1 cm3. After animal sacrifice, tumors were dissected, weighed and snap-frozen in liquid nitrogen for RNA or protein extraction and immunofluorescence analysis (embedded in OCT from Tissue-Tek). Tumors for picrosirius red staining were fixed in formalin."}, "M238P cells": {"system": "M238P cells", "experiment": "Viability assay (crystal violet staining of attached cells), BRAFi-sensitive parental cells", "format": "cell-based, human", "conditions": "3 days", "description": "Melanoma cells were cultured in Dulbecco's modified Eagle medium (DMEM) supplemented with 7% FBS (Hyclone) and 1% penicillin/streptomycin. Resistant cells were continuously exposed to 1 μM of Vemurafenib. […] BRAFi (PLX4032, Vemurafenib), MEKi (GSK1120212, Trametinib) and Nintedanib (BIBF1120) were from Selleckem."}, "YUMM 1.7 tumors": {"system": "YUMM 1.7 tumors", "experiment": "ECM remodeling in YUMM1.7 tumors (picrosirius red collagen staining, qPCR of ECM, myofibroblast and pro-fibrotic markers)", "format": "in vivo, mouse", "conditions": "co-administration of Nintedanib with MAPKi; data not shown", "experimental": "1 μg of extracted RNA from cells was reverse transcribed into cDNA using the Multiscribe reverse transcriptase kit provided by Applied Biosystems. Primers were designed using PrimerBank or adopted from published studies. Gene expression levels were measured using Platinum SYBR Green qPCR Supermix (Fisher Scientific) and Step One thermocycler (Applied Biosystem). Results from qPCR were normalized using the reference gene RPL32 and relative gene expression was quantified with the ΔΔCt method. […] Following a pre-amplification step (Fluidigm® PreAmp Master Mix and […]) and exonuclease I treatment, samples diluted in Eva-Green® Supermix with Low ROX were loaded with primer reaction mixes in 96.96 Dynamic ArrayTM IFCs. Gene expression was then assessed on a Fluidigm BioMark HD instrument. Data were analyzed with real-time PCR analysis software (Fluidigm Corporation), and presented as relative gene expression according to the ΔΔCt method. Heat maps depicting fold changes of gene expression were prepared using MeV software. Collagen in paraffin-embedded tumors was stained with picrosirius red using standard protocols as described (Girard et al., 2020). Tumor sections were analyzed by polarized light microscopy. Images were acquired under polarized illumination using a light transmission microscope (Zeiss PALM, at 10× magnification). […]"}, "M238R cells [2]": {"system": "M238R cells", "experiment": "Viability assay (crystal violet staining of attached cells), BRAFi-resistant cells", "format": "cell-based, human", "conditions": "3 days", "experimental": "FIG. 1. Nintedanib sensitizes melanoma cells to BRAFi/MEKi therapy and prevents BRAFi/MEKi-driven ECM remodeling. (A) BRAFi-resistant M238R cells were treated with vehicle (Ctrl), Nintedanib (2 μM), Vemurafenib and Trametinib (BRAFi/MEKi, 5 μM) or Vemurafenib/Trametinib (5 μM) plus Nintedanib (2 μM) for 3 days. Cell viability was assessed by crystal violet staining of attached cells. (B) BRAFi-sensitive parental M238P cells were treated with vehicle (Ctrl), Nintedanib (2 μM) Vemurafenib and Trametinib (BRAFi/MEKi, 1 μM) or Vemurafenib/Trametinib (1 μM) plus Nintedanib (2 μM) for 3 days. Cell viability was assessed by crystal violet staining of attached cells. Paired Student t-test has been used for statistical analysis. ****P≤0.0001. Data is represented as mean ±SE from a triplicate representative of at least 3 independent experiments.\nThe isogenic pair of Vemurafenib-sensitive and -resistant human BRAF-mutated melanoma cells M238 was provided by R. Lo (Nazarian et al., 2010). YUMM1.7 mouse melanoma cells were a kind gift from M. Bosenberg (Meeth et al., 2016). […]\nAfter the indicated treatments, cells were stained with 0.04% crystal violet, 20% ethanol in PBS for 30 min. […] The crystal violet dye is solubilized by 10% acetic acid in PBS and measured by absorbance at 595 nm."}, "M238R cells [3]": {"system": "M238R cells", "experiment": "Real-time quantitative PCR gene expression in BRAFi-resistant cells", "format": "cell-based, human", "conditions": "data not shown", "experimental": "(§1) Total RNA was extracted from tumors and cell samples with the miRNeasy Mini Kit (Qiagen) according to the manufacturer's instructions.\n(§2) 1 μg of extracted RNA from cells was reverse transcribed into cDNA using the Multiscribe reverse transcriptase kit provided by Applied Biosystems. Primers were designed using PrimerBank or adopted from published studies. Gene expression levels were measured using Platinum SYBR Green qPCR Supermix (Fisher Scientific) and Step One thermocycler (Applied Biosystem). Results from qPCR were normalized using the reference gene RPL32 and relative gene expression was quantified with the ΔΔCt method. Heatmaps describing gene expression fold changes were prepared using MeV software. cDNAs from tumors were prepared from 100 ng of RNA using Fluidigm Reverse Transcription Master Mix (Fluidigm PN 100-647297). Following a pre-amplification step (Fluidigm® PreAmp Master Mix and DELTAgene™ Assay kits) and exonuclease I treatment, samples diluted in Eva-Green® Supermix with Low ROX were loaded with primer reaction mixes in 96.96 Dynamic Array™ IFCs. Gene expression was then assessed on a Fluidigm BioMark HD instrument. Data were analyzed with real-time PCR analysis software (Fluidigm Corporation), and presented as relative gene expression according to the ΔΔCt method. Heat maps depicting fold changes of gene expression were prepared using MeV software."}, "M238P melanoma cells": {"system": "M238P melanoma cells", "experiment": "Real-time quantitative PCR gene expression in BRAFi-sensitive cells", "format": "cell-based, human", "conditions": "data not shown", "experimental": "as §1, §2"}},
  "data": [
    {"molecule": "COC(=O)c1ccc2c(c1)NC(=O)/C2=C(\\Nc1ccc(N(C)C(=O)CN2CCN(C)CC2)cc1)c1ccccc1", "note": "[Nintedanib]", "values": [
      {"measurement": "effect on MAPK-targeted therapy efficacy and tumor relapse", "setting": "[1]; BRAFi/MEKi-treated YUMM1.7 melanoma, n=3, Nintedanib 50 mg/kg or Pirfenidone 100 mg/kg added to Vemurafenib 30 mg/kg + Trametinib 0.3 mg/kg", "result": "enhances MAPK-targeted therapy efficacy and prevents tumor relapse"},
      {"measurement": "anti-melanoma effect", "setting": "[1]; YUMM1.7 s.c. in C57BL/6 mice, Nintedanib 50 mg/kg alone, oral gavage three times per week", "result": "did not display any anti-melanoma effect"},
      {"measurement": "tumor growth", "setting": "[1]; YUMM1.7 s.c. in C57BL/6 mice, oral gavage three times per week", "result": "slightly slowing down tumor growth but not triggering tumor volume decrease"},
      {"measurement": "cell survival (viability)", "setting": "M238P cells; BRAFi-sensitive M238P cells, Nintedanib alone (2 μM)", "result": "no effect"},
      {"measurement": "effect on the inhibitory effect of BRAFi plus MEKi on cell viability", "setting": "M238P cells; M238P cells, Nintedanib 2 μM plus Vemurafenib/Trametinib 1 μM", "result": "potentiated significantly the inhibitory effect"},
      {"measurement": "MAPKi-induced ECM remodeling responses in tumors", "setting": "YUMM 1.7 tumors", "result": "suppressed"},
      {"measurement": "cell survival (viability)", "setting": "M238R cells [2]; BRAFi-resistant M238R cells, Nintedanib alone (2 μM)", "result": "no effect"},
      {"measurement": "sensitivity to BRAF and MEK co-inhibition (cell viability)", "setting": "M238R cells [2]; M238R cells, Nintedanib 2 μM plus Vemurafenib/Trametinib 5 μM", "result": "restored sensitivity"},
      {"measurement": "ECM and fibrotic-like signature", "setting": "M238R cells [3]; Nintedanib at two different doses", "result": "reverted"},
      {"measurement": "PDL1 expression", "setting": "M238R cells [3]", "result": "reduced"},
      {"measurement": "BRAFi-induced ECM-related signature and myofibroblast markers such as ACTA2, MYL9 and LOXL2", "setting": "M238P melanoma cells", "result": "strongly attenuated"},
      {"measurement": "differentiation marker MITF expression", "setting": "M238P melanoma cells; under BRAFi", "result": "prevented the downregulation"},
      {"measurement": "gene expression of phenotypic markers such as PDL1 and NGFR", "setting": "M238P melanoma cells; under BRAFi", "result": "reduced"}
    ]}
  ]
}
